From patent publication US11730712B2, “Functionalized long-chain hydrocarbon mono- and di-carboxylic acids and derivatives thereof, and their use for the prevention or treatment of disease” (ESPERVITA THERAPEUTICS, INC., priority 2021, dated 2023)
“And” between values parts separate entries of the source, which are not always exact repeats. Equal entries are not always repeated.

Key:
MELK = MELK (Homo sapiens, UniProt Q14680); test: Kinase assay, wild type kinases; assay type: biochemical; conditions: compound 10 μM, 10 μM ATP, duplicate (Data 1, Data 2), >100 activation, <100 inhibition; for remaining activity at 10 µM: read-out: % Enzyme Activity (relative to DMSO controls), MELK
mouse kidney = test: Kidney histology in DEN NASH-HCC mice after 4 weeks of treatment; assay type: in vivo; design: key to Tubular injury score, Average / Tubular mitoses score, Average / Tubular vacuoles score, Average / Interstitial inflammation score, Average / Interstitial fibrosis score, Average / Glomerular score, Average: 0 = not present to 5 = severe, overwhelming change; mean of mice; key to Tubular mitoses score, individual mice / Interstitial inflammation score, individual mice / Interstitial fibrosis score, individual mice / Glomerular score, individual mice / Tubular injury score, individual mice / Tubular vacuoles score, individual mice: 0—not present; 1—minimal, inconspicuous change; 2—slight, noticeable but not a prominent feature; 3—moderate, prominent feature; 4—marked, dominant but not overwhelming feature; 5—severe, overwhelming change; conditions: for Glomerular score, individual mice / Interstitial fibrosis score, individual mice / Interstitial inflammation score, individual mice / Tubular injury score, individual mice / Tubular mitoses score, individual mice / Tubular vacuoles score, individual mice / Glomerular score, Average / Interstitial fibrosis score, Average / Interstitial inflammation score, Average / Tubular injury score, Average / Tubular mitoses score, Average / Tubular vacuoles score, Average: kidney; for Glomerular score, Average / Interstitial fibrosis score, Average / Interstitial inflammation score, Average / Tubular injury score, Average / Tubular mitoses score, Average / Tubular vacuoles score, Average: 8 mice
Procedure: Kidney Histology. Following fixation with 10% neutral buffered formalin for 46 hours, kidneys were cleaved longitudinally through hilium and immersed in 70% ethanol. Kidneys were then processed, paraffin embedded, serially sectioned and stained with haematoxylin and eosin (H&E) and Masson's Trichrome (MTC) by the McMaster Immunology Research Centre histology Core Facility. Blinded kidney histological scores for tubular injury, tubular mitoses, tubular vacuoles, interstitial inflammation, interstitial fibrosis, glomerular were assigned by pathologists.
Kidney Histology. […] In Table 15, pathologist's scoring is as follows: 0—not present; 1—minimal, inconspicuous change; 2—slight, noticeable but not a prominent feature; 3—moderate, prominent feature; 4—marked, dominant but not overwhelming feature; 5—severe, overwhelming change.

RIPK4 = target: T1, RIPK4 (Homo sapiens, UniProt P57078); test: Kinase assay, wild type kinases; assay type: biochemical; conditions: compound 10 μM, 10 μM ATP, duplicate (Data 1, Data 2), >100 activation, <100 inhibition; for remaining activity at 10 µM: read-out: % Enzyme Activity (relative to DMSO controls), RIPK4
T1 sequence (P57078 1-832): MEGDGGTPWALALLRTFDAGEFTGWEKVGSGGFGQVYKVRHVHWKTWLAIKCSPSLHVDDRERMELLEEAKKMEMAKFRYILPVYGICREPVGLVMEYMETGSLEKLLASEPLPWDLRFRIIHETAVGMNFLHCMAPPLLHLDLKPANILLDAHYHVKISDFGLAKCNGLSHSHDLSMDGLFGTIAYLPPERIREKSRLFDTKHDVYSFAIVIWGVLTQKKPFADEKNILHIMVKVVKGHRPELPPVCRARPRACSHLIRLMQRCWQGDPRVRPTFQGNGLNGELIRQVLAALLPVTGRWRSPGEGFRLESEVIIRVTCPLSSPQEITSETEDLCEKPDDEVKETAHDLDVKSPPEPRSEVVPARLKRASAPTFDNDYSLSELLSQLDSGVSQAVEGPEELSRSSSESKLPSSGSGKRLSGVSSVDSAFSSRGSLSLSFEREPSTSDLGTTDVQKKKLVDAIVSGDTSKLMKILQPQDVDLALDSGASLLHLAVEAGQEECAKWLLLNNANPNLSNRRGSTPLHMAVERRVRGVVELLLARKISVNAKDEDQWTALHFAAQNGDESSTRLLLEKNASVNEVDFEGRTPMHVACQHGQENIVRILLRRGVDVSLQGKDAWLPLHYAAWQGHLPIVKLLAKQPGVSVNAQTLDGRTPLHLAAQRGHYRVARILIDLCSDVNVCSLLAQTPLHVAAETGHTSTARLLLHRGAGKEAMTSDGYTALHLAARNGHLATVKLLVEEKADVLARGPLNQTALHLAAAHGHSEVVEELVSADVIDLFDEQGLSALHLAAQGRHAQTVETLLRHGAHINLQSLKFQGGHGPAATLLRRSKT

BMX/ETK = target: T2, BMX/ETK (Homo sapiens, UniProt P51813); test: Kinase assay, wild type kinases; assay type: biochemical; conditions: compound 10 μM, 10 μM ATP, duplicate (Data 1, Data 2), >100 activation, <100 inhibition; for remaining activity at 10 µM: read-out: % Enzyme Activity (relative to DMSO controls), BMX/ETK
T2 sequence (P51813 1-675): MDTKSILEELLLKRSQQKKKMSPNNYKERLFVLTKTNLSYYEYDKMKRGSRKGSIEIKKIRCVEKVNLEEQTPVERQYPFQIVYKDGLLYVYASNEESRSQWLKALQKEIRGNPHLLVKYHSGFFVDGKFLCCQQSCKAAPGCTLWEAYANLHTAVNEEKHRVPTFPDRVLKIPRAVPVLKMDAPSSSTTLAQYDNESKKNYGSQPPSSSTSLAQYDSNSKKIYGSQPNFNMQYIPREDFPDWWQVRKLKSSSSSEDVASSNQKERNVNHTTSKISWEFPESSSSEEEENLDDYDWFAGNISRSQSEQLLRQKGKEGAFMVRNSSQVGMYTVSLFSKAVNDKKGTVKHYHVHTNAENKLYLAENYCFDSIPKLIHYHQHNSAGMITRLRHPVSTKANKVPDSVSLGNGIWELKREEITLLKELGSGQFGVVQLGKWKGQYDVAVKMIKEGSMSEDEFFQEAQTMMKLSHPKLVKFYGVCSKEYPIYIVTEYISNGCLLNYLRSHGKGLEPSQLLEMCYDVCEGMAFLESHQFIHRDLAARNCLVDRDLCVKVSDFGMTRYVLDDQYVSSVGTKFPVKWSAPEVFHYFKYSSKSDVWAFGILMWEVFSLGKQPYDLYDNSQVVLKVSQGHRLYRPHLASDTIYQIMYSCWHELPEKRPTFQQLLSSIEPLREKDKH

CAMK2g = CAMK2g (Homo sapiens, UniProt Q13555); test: Kinase assay, wild type kinases; assay type: biochemical; conditions: compound 10 μM, 10 μM ATP, duplicate (Data 1, Data 2), >100 activation, <100 inhibition; for remaining activity at 10 µM: read-out: % Enzyme Activity (relative to DMSO controls), CAMK2g

Chain of MELK (Q14680 whole entry, species assumed): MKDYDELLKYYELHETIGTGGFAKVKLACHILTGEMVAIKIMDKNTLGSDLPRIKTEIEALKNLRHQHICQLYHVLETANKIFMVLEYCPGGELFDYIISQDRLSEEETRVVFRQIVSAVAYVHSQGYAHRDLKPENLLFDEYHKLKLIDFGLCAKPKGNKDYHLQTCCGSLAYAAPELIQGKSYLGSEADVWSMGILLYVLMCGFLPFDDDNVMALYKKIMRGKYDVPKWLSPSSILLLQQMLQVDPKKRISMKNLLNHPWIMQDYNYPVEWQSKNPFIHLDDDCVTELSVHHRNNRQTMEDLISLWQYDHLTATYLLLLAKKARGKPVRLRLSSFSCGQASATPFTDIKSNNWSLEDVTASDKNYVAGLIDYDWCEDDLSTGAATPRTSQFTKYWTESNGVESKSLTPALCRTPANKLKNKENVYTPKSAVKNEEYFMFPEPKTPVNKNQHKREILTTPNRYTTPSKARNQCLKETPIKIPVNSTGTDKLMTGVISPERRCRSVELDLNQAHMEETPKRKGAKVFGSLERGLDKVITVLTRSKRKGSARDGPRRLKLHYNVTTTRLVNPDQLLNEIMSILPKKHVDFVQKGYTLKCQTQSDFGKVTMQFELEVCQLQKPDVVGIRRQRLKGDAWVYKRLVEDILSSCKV

`CC(C)(CCCCc1ccc(CCCCC(C)(C)C(=O)O)cc1)C(=O)O` [Compound I-1, 6-[4-(5-carboxy-5-methylhexyl)-phenyl]-2,2-dimethylhexanoic acid] was tested, and the remaining activity at 10 µM (MELK) was 110%, the “kidney pathological differences vs Vehicle” value (mouse kidney) was “no pathological differences” and the “Glomerular score, individual mice” value (mouse kidney) was 0 (3×) and 1 (2×) and 0.5 (3×). For the same compound, the “Interstitial fibrosis score, individual mice” value (mouse kidney) was 1 (4×) and 0.5 (2×) and 0 and 1.5, the “Interstitial inflammation score, individual mice” value (mouse kidney) was 0 (5×) and 0.5 (3×) and the “Tubular injury score, individual mice” value (mouse kidney) was 1.5 and 1 and 0.5 (4×) and 0 (2×). For the same compound, the “Tubular mitoses score, individual mice” value (mouse kidney) was 1 and 0 (3×) and 0.5 (4×), the “Tubular vacuoles score, individual mice” value (mouse kidney) was 3.5 and 1.5 (3×) and 3 and 0.5 (2×) and 1 and the “Glomerular score, Average” value (mouse kidney) was 0.44. The “Interstitial fibrosis score, Average” value (mouse kidney) was 1.0, the “Interstitial inflammation score, Average” value (mouse kidney) was 0.19 and the “Tubular injury score, Average” value (mouse kidney) was 0.56. The “Tubular mitoses score, Average” value (mouse kidney) was 0.38, the “Tubular vacuoles score, Average” value (mouse kidney) was 1.63 and the remaining activity at 10 µM (RIPK4) was 45.1%. It also gave a remaining activity at 10 µM (BMX/ETK) of 55% and a remaining activity at 10 µM (CAMK2g) of 60.6%.

For `CC(C)(CCCCc1cccc(CCCCC(C)(C)C(=O)O)c1)C(=O)O` [Compound I-32, 6-[3-(5-carboxy-5-methylhexyl)-phenyl]-2,2-dimethylhexanoic acid], the remaining activity at 10 µM (MELK) was 114%, the “kidney pathological differences vs Vehicle” value (mouse kidney) was “no pathological differences” and the “Glomerular score, individual mice” value (mouse kidney) was 0 and 0.5 (5×) and 1 (2×). For the same compound, the “Interstitial fibrosis score, individual mice” value (mouse kidney) was 0.5 (2×) and 1 (3×) and 2 and 1.5 (2×), the “Interstitial inflammation score, individual mice” value (mouse kidney) was 0 (3×) and 2.5 and 1 and 1.5 and 0.5 (2×) and the “Tubular injury score, individual mice” value (mouse kidney) was 0 (3×) and 1.5 (4×) and 1. The “Tubular mitoses score, individual mice” value (mouse kidney) was 0 (4×) and 1 (2×) and 0.5 (2×), the “Tubular vacuoles score, individual mice” value (mouse kidney) was 0.5 and 3.5 and 1.5 and 3 and 2 and 1 (3×) and the “Glomerular score, Average” value (mouse kidney) was 0.56. For the same compound, the “Interstitial fibrosis score, Average” value (mouse kidney) was 1.13, the “Interstitial inflammation score, Average” value (mouse kidney) was 0.75 and the “Tubular injury score, Average” value (mouse kidney) was 0.88. The “Tubular mitoses score, Average” value (mouse kidney) was 0.38, the “Tubular vacuoles score, Average” value (mouse kidney) was 1.69 and the remaining activity at 10 µM (RIPK4) was 43%. For the same compound, the remaining activity at 10 µM (BMX/ETK) was 53.7% and the remaining activity at 10 µM (CAMK2g) was 73.2%.

With `CC(C)(CCCCc1ccc(CCCCC(C)(C)C(=O)SCCNC(=O)CCNC(=O)[C@H](O)C(C)(C)COP(=O)(O)OP(=O)(O)OC[C@H]2O[C@@H](n3cnc4c(N)ncnc43)[C@H](O)[C@@H]2OP(=O)(O)O)cc1)C(=O)O` [Compound I-1-CoA, 6-[4-(5-carboxy-5-methylhexyl)-phenyl]-2,2-dimethylhexanoic acid Coenzyme A ester] the “% Enzyme Activity (relative to DMSO controls), MELK” value (MELK) was 23.02% and 21.99%, the “% Enzyme Activity (relative to DMSO controls), RIPK4” value (RIPK4) was 32.26% and 29.70% and the “% Enzyme Activity (relative to DMSO controls), BMX/ETK” value (BMX/ETK) was 49.55% and 47.76%. For the same compound, the “% Enzyme Activity (relative to DMSO controls), CAMK2g” value (CAMK2g) was 53.91% and 53.05%.

With `CC(C)(CCCCc1cccc(CCCCC(C)(C)C(=O)SCCNC(=O)CCNC(=O)[C@H](O)C(C)(C)COP(=O)(O)OP(=O)(O)OC[C@H]2O[C@@H](n3cnc4c(N)ncnc43)[C@H](O)[C@@H]2OP(=O)(O)O)c1)C(=O)O` [Compound I-32-CoA, 6-[3-(5-Carboxy-5-methylhexyl)-phenyl]-2,2-dimethylhexanoic acid Coenzyme A Ester] the “% Enzyme Activity (relative to DMSO controls), MELK” value (MELK) was 28.56% and 27.35%, the “% Enzyme Activity (relative to DMSO controls), RIPK4” value (RIPK4) was 33.02% and 32.84% and the “% Enzyme Activity (relative to DMSO controls), BMX/ETK” value (BMX/ETK) was 49.54% and 43.87%. The “% Enzyme Activity (relative to DMSO controls), CAMK2g” value (CAMK2g) was 35.05% and 34.20%.
